According to article PMC11724075, “Small-molecule-induced ERBB4 activation to treat heart failure” (Nature Communications, 2025):
Several values for one entry are separate records, joined by “and”; a condition that tells them apart may be missing. Equal values may be shown once.

Assays:
mouse model of MI [1] = experiment: Mouse model of MI (LAD ligation), echocardiography; format: in vivo; design: left-ventricular end-diastolic volume / left-ventricular end-systolic volume: unit not given here
Protocol: (§1) Twelve-week-old female and male Balb/cJ (Charles River, 000651) mice were randomized into either the ctrl or MI group. Mice in the MI group underwent surgical ligation of the LAD, while mice in the ctrl group underwent a sham procedure (n = 8 female mice, n = 10 male mice). Briefly, all mice received an injection of 0.1 mg/kg buprenorphine (Produlab Pharma) before induction of anesthesia with 8% sevoflurane (Zoetis). Anesthesia was maintained with 4.5% sevoflurane and mice were intubated and ventilated. An incision of 15 mm was made on the left side of the thorax and the thoracic cavity was opened at the third intercostal space using blunt forceps. The LAD was permanently ligated with a 8/0 polypropylene monofilament sutures (Ethicon, F1894) after which the thoracic cavity and skin were closed with 6/0 polypropylene monofilament sutures (Ethicon, F1841). and 5/0 polyamide 6 sutures (Ethilon, F2412H), respectively. Mice received another dose of 0.1 mg/kg buprenorphine 6–8 h after the initial dose. Two days after surgery, cardiac ultrasound was performed to exclude mice without successful MI (i.e. displaying hypokinesia in ≥2 out of 5 segments). […] Cardiac ultrasound was performed weekly. After 4 weeks of treatment, mice were euthanized, and hearts were collected.
Echocardiography was performed using the Vevo F2-LAZRX (FUJIFILM VisualSonics) and UHF57x probe. Mice were anesthetized with 1.5% isoflurane (Alvira, BE-V512222). Parasternal long-axis B-mode images and M-mode images were obtained and analyzed using VevoLAB software (FUJIFILM VisualSonics, Version 5.7.1). For the AngII experiments, measurements were obtained through analysis of the short-axis M-mode. For the MI experiments, measurements were obtained through analysis of the parasternal long-axis B-mode, of which the area and end-volume of the left ventricular cavity in diastole and systole were determined by tracing the endocardial border. Acquisitions, measurements and analyses were performed blinded.
Supplementary Table 2. Echocardiographic parameters. […]
Echocardiographic parameters obtained through left ventricular trace analysis of the parasternal long-axis obtained in B-mode in female wild-type mice that underwent a sham or MI operation: mice with […]
in MI/EF-1 group). (g) Echocardiographic parameters obtained through left ventricular trace analysis of the parasternal long-axis obtained in B-mode in male wild-type mice that underwent a sham or MI […]
male mice in MI/Veh group for T2 and T4). Echocardiographic parameters were measured weekly (indicated by ‘T’). All data are presented as mean (value of individual mice) ± SD, two-tailed unpaired […]
1 groups. Source data are provided as a Source Data file. AngII, angiotensin II; ANOVA, analysis of variance; Ctrl, control; DOX, doxorubicin; EF, ejection fraction; ERBB4, erythroblastic leukemia viral oncogene homolog 4; FS, fractional shortening; IVSd, interventricular septum thickness in diastole; IVSs, interventricular septum thickness in systole; LVIDd, left ventricular internal diameter in diastole; LVIDs, left ventricular internal diameter in systole; LVPWd, left ventricular posterior wall thickness in diastole; LVPWs, left ventricular posterior wall thickness in systole; MI, myocardial infarction; NA, non-activating pharmacophore-containing compound; SD, standard variation; Veh, vehicle.

mouse model of MI [2] = experiment: Mouse model of MI, histology: CSA, capillaries, interstitial fibrosis, scar size; format: in vivo
Protocol: as §1
Hearts were fixed in 4% PFA, paraffin-embedded, and cut into 5-µm sections. Images were acquired with an Olympus BX43 microscope (Olympus Stream Motion Software) or a CELENA® S Digital Imaging System and analyzed with ImageJ 2.14.0 software. Collagen distribution was visualized by Masson’s trichrome staining. Cardiac total fibrosis was expressed as the ratio of positively stained fibrotic area (blue) to the total area and perivascular fibrosis as the ratio of fibrotic area to vascular lumen area. Scar size was determined by measuring the scar length over the […]. Hypertrophy and vascularisation were visualized via an isolectin-B4/WGA/DAPI staining. Quantification was performed by a person blinded to the treatment protocol.

[3] = Myocardial infarction, female wild-type mice, MI/EF-1, T0
[4] = Myocardial infarction, female wild-type mice, MI/EF-1, T2
[5] = Myocardial infarction, female wild-type mice, MI/EF-1, T3
[6] = Myocardial infarction, female wild-type mice, MI/EF-1, T4
[7] = Myocardial infarction, male wild-type mice, MI/EF-1, T0
[8] = Myocardial infarction, male wild-type mice, MI/EF-1, T2
[9] = Myocardial infarction, male wild-type mice, MI/EF-1, T3
[10] = Myocardial infarction, male wild-type mice, MI/EF-1, T4
[11] = female wild-type mice, MI/EF-1, T0, mean ± SD
[12] = female wild-type mice, MI/EF-1, T2, mean ± SD
[13] = female wild-type mice, MI/EF-1, T3, mean ± SD
[14] = female wild-type mice, MI/EF-1, T4, mean ± SD
[15] = male mice, MI/EF-1, 0 weeks after MI
[16] = male wild-type mice, MI/EF-1, T0, mean ± SD
[17] = male wild-type mice, MI/EF-1, T2, mean ± SD
[18] = male wild-type mice, MI/EF-1, T3, mean ± SD
[19] = male wild-type mice, MI/EF-1, T4, mean ± SD
[20] = MI experiment, female mice, MI/EF-1

O=C(NC1CC1)C(Sc1nc2ccccc2c(=O)n1C1CCCC1)c1ccccc1 (stereo not shown) [EF-1]
LVEDA (mouse model of MI [1]; [3]): 21.8 ± 1.4 mm²
LVEDV (mouse model of MI [1]; [3]): 56.7 ± 5.5 µL
LVESA (mouse model of MI [1]; [3]): 15.5 ± 2.1 mm²
LVESV (mouse model of MI [1]; [3]): 32.7 ± 6.7 µL
LVEDA (mouse model of MI [1]; [4]): 25.7 ± 1.6 mm²
LVEDV (mouse model of MI [1]; [4]): 73.6 ± 9.1 µL
LVESA (mouse model of MI [1]; [4]): 20.8 ± 2.9 mm²
LVESV (mouse model of MI [1]; [4]): 53.9 ± 14.5 µL
LVEDA (mouse model of MI [1]; [5]): 26.5 ± 4.5 mm²
LVEDV (mouse model of MI [1]; [5]): 80.3 ± 22.9 µL
LVESA (mouse model of MI [1]; [5]): 21.2 ± 5.8 mm²
LVESV (mouse model of MI [1]; [5]): 56.6 ± 25.0 µL
LVEDA (mouse model of MI [1]; [6]): 26.5 ± 4.5 mm²
LVEDV (mouse model of MI [1]; [6]): 80.3 ± 22.9 µL
LVESA (mouse model of MI [1]; [6]): 21.2 ± 5.8 mm²
LVESV (mouse model of MI [1]; [6]): 56.6 ± 25.0 µL
LVEDA (mouse model of MI [1]; [7]): 24.7 ± 3.9 mm²
LVEDV (mouse model of MI [1]; [7]): 67.1 ± 15.6 µL
LVESA (mouse model of MI [1]; [7]): 17.6 ± 2.8 mm²
LVESV (mouse model of MI [1]; [7]): 37.3 ± 8.9 µL
LVEDA (mouse model of MI [1]; [8]): 34.8 ± 5.5 mm²
LVEDV (mouse model of MI [1]; [8]): 118.7 ± 30.8 µL
LVESA (mouse model of MI [1]; [8]): 29.7 ± 6.7 mm²
LVESV (mouse model of MI [1]; [8]): 93.3 ± 36.1 µL
LVEDA (mouse model of MI [1]; [9]): 36.6 ± 5.9 mm²
LVEDV (mouse model of MI [1]; [9]): 124.6 ± 35.3 µL
LVESA (mouse model of MI [1]; [9]): 31.3 ± 8.0 mm²
LVESV (mouse model of MI [1]; [9]): 100.4 ± 42.0 µL
LVEDA (mouse model of MI [1]; [10]): 35.9 ± 6.9 mm²
LVEDV (mouse model of MI [1]; [10]): 119.8 ± 37.5 µL
LVESA (mouse model of MI [1]; [10]): 30.5 ± 7.7 mm²
LVESV (mouse model of MI [1]; [10]): 92.5 ± 40.6 µL
effect on MI-induced increase in LVEDV and LVESV (in words) (mouse model of MI [1]; female mice, four-week treatment, EF-1 2 mg/kg/day): significantly attenuated the increase in LVEDV and LVESV
effect on left ventricular ejection fraction (in words) (mouse model of MI [1]; female mice, four-week treatment, p = 0.0858): trend towards an increased EF
EF (ejection fraction) (mouse model of MI [1]; [11]): 42.7 ± 8.1%
LVEDA (mouse model of MI [1]; [11]): 21.8 ± 1.4 mm²
LVEDV (mouse model of MI [1]; [11]): 56.7 ± 5.5 µL
LVESA (mouse model of MI [1]; [11]): 15.5 ± 2.1 mm²
LVESV (mouse model of MI [1]; [11]): 32.7 ± 6.7 µL
EF (ejection fraction) (mouse model of MI [1]; [12]): 27.4 ± 14.1%
LVEDA (mouse model of MI [1]; [12]): 25.7 ± 1.6 mm²
LVEDV (mouse model of MI [1]; [12]): 73.6 ± 9.1 µL
LVESA (mouse model of MI [1]; [12]): 20.8 ± 2.9 mm²
LVESV (mouse model of MI [1]; [12]): 53.9 ± 14.5 µL
EF (ejection fraction) (mouse model of MI [1]; [13]): 32.2 ± 12.4%
LVEDA (mouse model of MI [1]; [13]): 26.5 ± 4.5 mm²
LVEDV (mouse model of MI [1]; [13]): 80.3 ± 22.9 µL
LVESA (mouse model of MI [1]; [13]): 21.2 ± 5.8 mm²
LVESV (mouse model of MI [1]; [13]): 56.6 ± 25.0 µL
EF (ejection fraction) (mouse model of MI [1]; [14]): 32.2 ± 12.4%
LVEDA (mouse model of MI [1]; [14]): 26.5 ± 4.5 mm²
LVEDV (mouse model of MI [1]; [14]): 80.3 ± 22.9 µL
LVESA (mouse model of MI [1]; [14]): 21.2 ± 5.8 mm²
LVESV (mouse model of MI [1]; [14]): 56.6 ± 25.0 µL
effect on LVEDV, LVESV, or EF (in words) (mouse model of MI [1]; male mice): did not have affect LVEDV, LVESV, or EF
ejection fraction (mouse model of MI [1]; [15]): 45.4182 and 46.7993 and 31.6272 and 37.5306 and 56.6563
left-ventricular end-diastolic volume (mouse model of MI [1]; [15]): 76.7178 and 76.3835 and 40.6948 and 76.4847 and 65.2387
left-ventricular end-systolic volume (mouse model of MI [1]; [15]): 41.874 and 40.6361 and 27.8242 and 47.7795 and 28.2468
left-ventricular end-diastolic volume (mouse model of MI [1]; male mice, MI/EF-1, 3 weeks after MI): 90.4868 and 146.112 and 167.204 and 86.1633 and 133.043
EF (ejection fraction) (mouse model of MI [1]; [16]): 43.6 ± 9.5%
LVEDA (mouse model of MI [1]; [16]): 24.7 ± 3.9 mm²
LVEDV (mouse model of MI [1]; [16]): 67.1 ± 15.6 µL
LVESA (mouse model of MI [1]; [16]): 17.6 ± 2.8 mm²
LVESV (mouse model of MI [1]; [16]): 37.3 ± 8.9 µL
EF (ejection fraction) (mouse model of MI [1]; [17]): 23.2 ± 12.8%
LVEDA (mouse model of MI [1]; [17]): 34.8 ± 5.5 mm²
LVEDV (mouse model of MI [1]; [17]): 118.7 ± 30.8 µL
LVESA (mouse model of MI [1]; [17]): 29.7 ± 6.7 mm²
LVESV (mouse model of MI [1]; [17]): 93.3 ± 36.1 µL
EF (ejection fraction) (mouse model of MI [1]; [18]): 22.0 ± 15.7%
LVEDA (mouse model of MI [1]; [18]): 36.6 ± 5.9 mm²
LVEDV (mouse model of MI [1]; [18]): 124.6 ± 35.3 µL
LVESA (mouse model of MI [1]; [18]): 31.3 ± 8.0 mm²
LVESV (mouse model of MI [1]; [18]): 100.4 ± 42.0 µL
EF (ejection fraction) (mouse model of MI [1]; [19]): 25.2 ± 11.5%
LVEDA (mouse model of MI [1]; [19]): 35.9 ± 6.9 mm²
LVEDV (mouse model of MI [1]; [19]): 119.8 ± 37.5 µL
LVESA (mouse model of MI [1]; [19]): 30.5 ± 7.7 mm²
LVESV (mouse model of MI [1]; [19]): 92.5 ± 40.6 µL
capillary density (#cap./100 CMs) (mouse model of MI [2]; [20]): 126.379 #cap./100 CMs and 126.085 #cap./100 CMs and 117.771 #cap./100 CMs and 154.255 #cap./100 CMs and 147.06 #cap./100 CMs and 123.257 #cap./100 CMs and 102.661 #cap./100 CMs
capillary density (#cap./area) (mouse model of MI [2]; [20]): 2.749 #cap./area and 3.344 #cap./area and 2.607 #cap./area and 4.068 #cap./area and 3.029 #cap./area and 3.536 #cap./area and 2.904 #cap./area
cardiomyocyte cross-sectional area in MI/EF-1 group (in words) (mouse model of MI [2]; both male and female mice): significant increase in cross-sectional area
interstitial fibrosis in the remote myocardium of the infarcted hearts (in words) (mouse model of MI [2]; female mice): significantly lower
number of capillaries per area (µm²) of the heart in MI/EF-1 group (in words) (mouse model of MI [2]; female mice): marked decrease in number of capillaries per area
scar size (in words) (mouse model of MI [2]; female or male mice): did not affect scar size
